Experimental data published in ChEMBL document CHEMBL1697821, “Development of a phospholipidosis database and predictive quantitative structure-activity relationship (QSAR) models” (Toxicol Mech Methods, 2008).

system: Phospholipidosis; experiment: Literature-mined public compounds from Kruhlak et al phospholipidosis modelling dataset

Structure (SMILES)	Phospholipidosis
C[C@](N)(Cc1ccc(O)c(O)c1)C(=O)O [METHYLDOPA]	Negative: confirmed by electron microscopy
COC(=O)c1ccc(O)cc1 [METHYLPARABEN]	Negative: based on the absence of positive reported data from WMDD
CCC1(CC)C(=O)NCC(C)C1=O (configuration not stated) [METHYPRYLON]	Negative: based on the absence of positive reported data from WMDD
CO[C@H]1[C@@H](O)C[C@H](O[C@H]2[C@@H](O)C[C@H](O[C@H]3[C@@H](O)C[C@H](O[C@H]4CC[C@@]5(C)[C@H](CC[C@@H]6[C@@H]5C[C@@H](O)[C@]5(C)[C@@H](C7=CC(=O)OC7)CC[C@]65O)C4)O[C@@H]3C)O[C@@H]2C)O[C@@H]1C [METILDIGOXIN]	Negative: based on the absence of positive reported data from WMDD
COc1ccc2cc1Oc1cc3c(cc1OC)CC[N+](C)(C)[C@H]3Cc1ccc(cc1)Oc1c(OC)c(OC)cc3c1[C@@H](C2)[N+](C)(C)CC3 [METOCURINE]	Negative: based on the absence of positive reported data from WMDD
COCCc1ccc(OCC(O)CNC(C)C)cc1 (configuration not stated) [METOPROLOL]	Negative: based on the absence of positive reported data from WMDD
CC(=O)Nc1c(I)c(C(=O)O)c(I)c(N(C)C(C)=O)c1I [METRIZOIC ACID]	Negative: based on the absence of positive reported data from WMDD
Cc1ncc([N+](=O)[O-])n1CCO [METRONIDAZOLE]	Negative: based on the absence of positive reported data from WMDD
CC(C)(C(=O)c1cccnc1)c1cccnc1 [METYRAPONE]	Negative: based on the absence of positive reported data from WMDD
CC1(C)S[C@@H]2[C@H](NC(=O)[C@H](NC(=O)N3CCN(S(C)(=O)=O)C3=O)c3ccccc3)C(=O)N2[C@H]1C(=O)O [MEZLOCILLIN]	Negative: based on the absence of positive reported data from WMDD
CN1CCN2c3ccccc3Cc3ccccc3C2C1 (configuration not stated) [MIANSERIN]	Positive: weak inducer based on presence of foamy macrophages and cytoplasmic vacuolations
Cc1ncc2n1-c1ccc(Cl)cc1C(c1ccccc1F)=NC2 [MIDAZOLAM]	Negative: based on the absence of positive reported data from WMDD
CCCCC(C)(O)C/C=C/[C@H]1[C@H](O)CC(=O)[C@@H]1CCCCCCC(=O)OC (some centres not stated) [MISOPROSTOL]	Negative: based on the absence of positive reported data from WMDD
O[C@@H]([C@H](O)[C@H](O)CBr)[C@H](O)CBr [MITOBRONITOL]	Negative: based on the absence of positive reported data from WMDD
NC(=O)C[S+]([O-])C(c1ccccc1)c1ccccc1 (configuration not stated) [MODAFINIL]	Negative: based on the absence of positive reported data from WMDD
CCOC(=O)[C@H](CCc1ccccc1)N[C@@H](C)C(=O)N1Cc2cc(OC)c(OC)cc2C[C@H]1C(=O)O [MOEXIPRIL]	Negative: based on the absence of positive reported data from WMDD
CCc1c(C)[nH]c2c1C(=O)C(CN1CCOCC1)CC2 (configuration not stated) [MOLINDONE]	Negative: based on the absence of positive reported data from WMDD
CCOC(=O)Nc1ccc2c(c1)N(C(=O)CCN1CCOCC1)c1ccccc1S2 [MORICIZINE]	Negative: based on the absence of positive reported data from WMDD
CC(=O)Oc1cc(C(C)C)c(OCCN(C)C)cc1C [MOXISYLYTE]	Negative: based on the absence of positive reported data from WMDD

Structure (SMILES)	Phospholipidosis
CCn1cc(C(=O)O)c(=O)c2ccc(C)nc21 [NALIDIXIC ACID]	Negative: based on the absence of positive reported data from WMDD
C[C@]12CC[C@H]3[C@@H](CCC4=CC(=O)CC[C@@H]43)[C@@H]1CC[C@@H]2O [NANDROLONE]	Negative: based on the absence of positive reported data from WMDD
C[C@@H]1C/C=C/C=C/C=C/C=C/[C@H](O[C@@H]2O[C@H](C)[C@@H](O)[C@H](N)[C@@H]2O)C[C@@H]2O[C@](O)(C[C@@H](O)C[C@H]3O[C@@H]3/C=C/C(=O)O1)C[C@H](O)[C@H]2C(=O)O [NATAMYCIN]	Negative: based on the absence of positive reported data from WMDD
CCc1nn(CCCN2CCN(c3cccc(Cl)c3)CC2)c(=O)n1CCOc1ccccc1 [NEFAZODONE]	Negative: based on the absence of positive reported data from WMDD
CCN[C@@H]1C[C@H](N)[C@@H](O[C@H]2OC(CN)=CC[C@H]2N)[C@H](O)[C@H]1O[C@H]1OC[C@](C)(O)[C@H](NC)[C@H]1O [NETILMICIN]	Positive: strong inducer confirmed by electron microscopy
O=C(O)c1cccnc1 [NIACIN]	Negative: based on the absence of positive reported data from WMDD
O=C(OC[C@H]1O[C@](O)(COC(=O)c2cccnc2)[C@@H](OC(=O)c2cccnc2)[C@@H]1OC(=O)c1cccnc1)c1cccnc1 [NICOFURANOSE]	Negative: based on the absence of positive reported data from WMDD
CN1C(=O)CN=C(c2ccccc2)c2cc([N+](=O)[O-])ccc21 [NIMETAZEPAM]	Negative: based on the absence of positive reported data from WMDD
COCCOC(=O)C1=C(C)NC(C)=C(C(=O)OC(C)C)C1c1cccc([N+](=O)[O-])c1 (configuration not stated) [NIMODIPINE]	Negative: based on the absence of positive reported data from WMDD
O=C1CN=C(c2ccccc2)c2cc([N+](=O)[O-])ccc2N1 [NITRAZEPAM]	Negative: based on the absence of positive reported data from WMDD
CCOC(=O)C1=C(C)NC(C)=C(C(=O)OC)C1c1cccc([N+](=O)[O-])c1 (configuration not stated) [NITRENDIPINE]	Negative: based on the absence of positive reported data from WMDD
O=C1CN(/N=C/c2ccc([N+](=O)[O-])o2)C(=O)N1 [NITROFURANTOIN]	Negative: based on the absence of positive reported data from WMDD
CN1Cc2c(N)cccc2C(c2ccccc2)C1 (configuration not stated) [NOMIFENSINE]	Negative: based on the absence of positive reported data from WMDD
Clc1ccc(C(c2ccccc2)N2CCNCC2)cc1 (configuration not stated) [NORCHLORCYCLIZINE]	Positive: strong inducer confirmed by electron microscopy
CC[C@]1(O)CC[C@H]2[C@@H]3CCC4=CC(=O)CC[C@@H]4[C@H]3CC[C@@]21C [NORETHANDROLONE]	Negative: based on the absence of positive reported data from WMDD
C#C[C@]1(OC(C)=O)CC[C@H]2[C@@H]3CCC4=CC(=O)CC[C@@H]4[C@H]3CC[C@@]21C [NORETHINDRONE ACETATE]	Negative: based on the absence of positive reported data from WMDD
CNCCC=C1c2ccccc2CCc2ccccc21 [NORTRIPTYLINE]	Positive: strong inducer confirmed by electron microscopy
CO[C@@H]1[C@@H](OC(N)=O)[C@@H](O)[C@H](Oc2ccc3c(O)c(NC(=O)c4ccc(O)c(CC=C(C)C)c4)c(=O)oc3c2C)OC1(C)C [NOVOBIOCIN]	Negative: based on the absence of positive reported data from WMDD
CN(C)CCON=C1c2ccccc2CCc2ccccc21 [NOXIPTILINE]	Positive: weak inducer based on presence of foamy macrophages and cytoplasmic vacuolations

Structure (SMILES)	Phospholipidosis
CC1COc2c(N3CCN(C)CC3)c(F)cc3c(=O)c(C(=O)O)cn1c23 (configuration not stated) [OFLOXACIN]	Negative: confirmed by electron microscopy
Cc1cc2c(s1)Nc1ccccc1N=C2N1CCN(C)CC1 [OLANZAPINE]	Negative: based on the absence of positive reported data from WMDD
O=C(O)c1cc(/N=N/c2ccc(O)c(C(=O)O)c2)ccc1O [OLSALAZINE]	Negative: based on the absence of positive reported data from WMDD
COc1ccc2[nH]c([S+]([O-])Cc3ncc(C)c(OC)c3C)nc2c1 (configuration not stated) [OMEPRAZOLE]	Negative: based on the absence of positive reported data from WMDD
OCCN1CCN(CCCN2c3ccccc3C=Cc3ccccc32)CC1 [OPIPRAMOL]	Negative: based on the absence of positive reported data from WMDD
CC(C)NCC1CCc2cc(CO)c([N+](=O)[O-])cc2N1 (configuration not stated) [OXAMNIQUINE]	Negative: based on the absence of positive reported data from WMDD
C[C@]12COC(=O)C[C@@H]1CC[C@@H]1[C@@H]2CC[C@@]2(C)[C@H]1CC[C@]2(C)O [OXANDROLONE]	Negative: based on the absence of positive reported data from WMDD
CC[N+]1(C)[C@@H]2CC(OC(=O)[C@H](CO)c3ccccc3)C[C@H]1[C@@H]1O[C@@H]12.[Br-] (some centres not stated) [OXITROPIUM BROMIDE]	Negative: based on the absence of positive reported data from WMDD
CCN(CC)CCc1nc(-c2ccccc2)no1 [OXOLAMINE]	Negative: based on the absence of positive reported data from WMDD
CCn1cc(C(=O)O)c(=O)c2cc3c(cc21)OCO3 [OXOLINIC ACID]	Negative: based on the absence of positive reported data from WMDD
CN1CC[C@]23c4c5ccc(O)c4O[C@H]2C(=O)CC[C@@]3(O)[C@H]1C5 [OXYMORPHONE]	Negative: based on the absence of positive reported data from WMDD
CC(C)(CO)[C@@H](O)C(=O)NCCC(=O)O [PANTOTHENIC ACID]	Negative: based on the absence of positive reported data from WMDD
CCC1(C)OC(=O)N(C)C1=O (configuration not stated) [PARAMETHADIONE]	Negative: based on the absence of positive reported data from WMDD
C#CCN(C)Cc1ccccc1 [PARGYLINE]	Negative: based on the absence of positive reported data from WMDD
CCC(=O)c1ccc(O)cc1 [PAROXYPROPIONE]	Negative: based on the absence of positive reported data from WMDD
CC1(C)S[C@@H]2[C@H](NC(=O)COc3ccccc3)C(=O)N2[C@H]1C(=O)O [PENICILLIN V]	Negative: based on the absence of positive reported data from WMDD
CCCC(C)C1(CC)C(=O)NC(=O)NC1=O (configuration not stated) [PENTOBARBITAL]	Negative: based on the absence of positive reported data from WMDD
CC(=O)CCCCn1c(=O)c2c(ncn2C)n(C)c1=O [PENTOXIFYLLINE]	Negative: based on the absence of positive reported data from WMDD
CCCN1C[C@H](CSC)C[C@@H]2c3cccc4[nH]cc(c34)C[C@H]21 [PERGOLIDE]	Negative: based on the absence of positive reported data from WMDD
